Experimental data published in article PMC6267684, “Pharmacokinetic evaluation of the PNC disassembler metarrestin in wild-type and Pdx1-Cre;LSL-Kras^G12D/+;Tp53^R172H/+ (KPC) mice, a genetically engineered model of pancreatic cancer” (Cancer Chemotherapy and Pharmacology, 2018).
Like-named read-outs stand apart in the source and are kept apart here.

Key:
[1] = Freeze-thaw stability in mouse plasma; format: in vitro ADME; conditions: after three freeze-thaw cycles
Procedure: Bioanalytical method validation was performed in mouse plasma and mouse liver. The linear calibration range for metarrestin was 1.0–1000 ng/mL for plasma and 5.0–20,000 ng/g for liver homogenate. The lower limit of quantitation of the assay was 1.0 ng/mL in plasma and 5.0 ng/g in liver homogenate. The accuracy of calibration standards was between within 8% of the nominal values. Intra-assay variance and deviation from nominal values were calculated at low quality-control (LOQ, 1.0 ng/mL plasma and 5.0 ng/g liver), middle quality-control (MQC, 10.0 ng/mL and 500 ng/g), and high quality-control (HQC, 1000 ng/mL and 20,000 ng/g) levels for six replicates, each of the same analytical run (Suppl. Tables 1, 2). The variance of the QC samples (CV%, […]) ranged from 1.0 to 5.1% and the deviation was between 3 and 6% from nominal values. No endogenous interference was found at the retention time for metarrestin and internal standard as verified by testing control blank plasma and liver homogenate. Metarrestin was stable in mouse plasma after three freeze-thaw cycles.

[2] = Pharmacokinetics in C57BL/6 mice after single IV and PO administration; format: in vivo; conditions: for Kp: liver/plasma, read-out: AUC0–∞ ratio (tissue/plasma); for AUC(0-t): read-out: AUC0–24h
Procedure: For pharmacokinetic studies, metarrestin solutions prepared in 30% PEG-400 and 70% (20% w:v HP-β-CD in water) solution were administered to C57BL/6 mice at 3 mg/kg IV via tail vein injection, or 3 and 10 mg/kg orally via gavage. KPC mice were additionally treated with 25 mg/kg PO via gavage. The dosing volume was 3 mL/kg for IV route and 10 mL/kg for PO route. Dosing solutions were prepared on the day of administration. Blood samples were collected at 10, 20 min, 1, 2, 4, 7 and 24 h after 3 mg/kg IV administration. After oral administration of 3 and 10 mg/kg in C57BL6 mice, blood and liver samples were collected at 10 min, 0.5, 1, 2, 3, 5, 7, 9 and 24 h post dosing (n = 3 per time point). In KPC mice, blood, pancreatic tumor, spleen and liver samples were collected at 1, 2, 3, 6, 9, 12 and 24 h after 25 mg/kg PO administration.
Blood samples were collected in K2EDTA tubes and plasma was harvested after centrifugation at 3000 rpm for 10 min. Tissue samples were weighed and flash-frozen for PK and PD mRNA expression analyses, embedded into OCT blocks for PNC determination and processed into FFPE blocks for histopathology assessment. All PK samples were stored at − 80 °C until analysis.
An ultra-performance liquid chromatography–tandem mass spectrometry (UPLC–MS/MS) method was developed to determine metarrestin concentrations in plasma and tissue samples. Mass spectrometric analysis was performed on a Waters Xevo TQ-S triple quadrupole instrument using electrospray ionization in positive mode. The separation was performed on an Acquity BEH C18 column (50 × 2.1 mm, 1.7 µ) using a Waters Acquity UPLC system with 0.6 mL/min flow rate and gradient elution. Mobile phase A was 0.1% formic acid in water, and B was 0.1% formic acid in acetonitrile (ACN). The column temperature was maintained at 60 °C. The calibration standards and quality control (QC) samples were prepared in the control blank mouse plasma and tissue homogenate. Tissues were homogenized with 3 or 6 volumes (v/w) of deionized water on the day of analysis. Proteins were precipitated from 10 µL plasma or 5 µL tissue homogenate with 200 µL ACN containing 100 ng/mL Tolbutamide as internal standard in 96-well plates. The mixture was vortexed for 2 min and centrifuged at 4000 rpm for 30 min at 4 °C. An aliquot of 150 µL supernatant was transferred to a 350-µL 96-well plate. 0.2 µL supernatant was injected for the UPLC–MS/MS analysis. Data were analyzed using MassLynx V4.1.
The pharmacokinetic parameters were calculated using the non-compartmental approach (Models 200 and 201) of the pharmacokinetic software Phoenix WinNonlin, version 6.4 (Certara, St. Louis, MO). The area under the plasma concentration vs time curve (AUC) was calculated using the linear trapezoidal method. The slope of the apparent terminal phase was estimated by log linear regression using at least three data points and the terminal rate constant (λ) was derived from the slope. AUC0–∞ was estimated as the sum of the AUC0–t (where t is the time of the last measurable concentration) and Ct/λ. The apparent terminal half-life (t½) was calculated as 0.693/λ.

[3] = test system: cleaved caspase 3; experiment: Cleaved caspase 3 immunohistochemistry in KPC tumors; format: in vivo, KPC mice; conditions: 25 mg/kg by gavage (PO) for 14 days
From the text: To arrive at markers driven by metarrestin exposure, we next subjected untreated and metarrestin-treated KPC tumors and matched normal pancreata to unbiased gene expression profiling using RNA-sEq. […] Thus, FOXA1 and FOXO6 may provide leads for future predictive biomarker development, assist in determination of the minimally efficacious dose, and add additional insight into the mechanism of action of metarrestin.
Suppl. Fig. 7. […] Nuclear cleaved caspase 3 expression levels in metarrestin-treated KPC tumors. Representative images of cleaved caspase 3 immunohistochemistry in tumors of KPC mice treated with vehicle (top) or 25mg/kg metarrestin for 14 days (bottom). Images 20×, inset 40×.

[4] = test system: KPC and PC3M cells; experiment: UPLC–MS/MS measurement of cellular metarrestin concentration; format: cell-based; conditions: 1 and 10 µM, within 40 min
[5] = C57BL/6, mouse, liver, po, 3 mg/kg, 3 mg/kg PO single dose
[6] = C57BL/6, mouse, liver, po, 10 mg/kg, 10 mg/kg PO single dose
[7] = C57BL/6, mouse, liver, 3 mg/kg PO single dose
[8] = C57BL/6, mouse, liver, 10 mg/kg PO single dose
[9] = C57BL/6, mouse, plasma, 3 mg/kg IV single dose
[10] = C57BL/6, mouse, plasma, 3 mg/kg PO single dose
[11] = C57BL/6, mouse, plasma, 10 mg/kg PO single dose

N=c1c2c(-c3ccccc3)c(-c3ccccc3)n(Cc3ccccc3)c2ncn1[C@H]1CC[C@H](O)CC1 [metarrestin, Trans-4-(7-benzyl-4-imino-5,6-diphenyl-4,7-dihydro-3H-pyrrolo[2,3-d]pyrimidin-3-yl) cyclohexanol]
stability in mouse plasma [1]: stable | Kp [2, 5]: > 50 | half-life [2, 5]: 4.7 h | Kp [2, 6]: > 50 | half-life [2, 6]: 4.1 h | half-life ([2]; C57BL/6, mouse, plasma, intravenous, oral, 10 mg/kg, low doses of 3 and 10 mg/kg, span over groups): 5 to 5.6 h | half-life ([2]; C57BL/6, mouse, plasma, iv, 3 mg/kg, 3 mg/kg IV single dose): ~5 h | half-life ([2]; C57BL/6, mouse, plasma, po, 3 mg/kg, 3 mg/kg PO single dose): 5.4 h | bioavailability ([2]; C57BL/6, mouse, plasma, po, 10 mg/kg, single oral dose 3 and 10 mg/kg via gavage): > 80% | half-life ([2]; C57BL/6, mouse, plasma, po, 10 mg/kg, 10 mg/kg PO single dose): 5.6 h | AUC(0-inf) [2, 7]: 68600 ng·h/mL | Cmax [2, 7]: 5420 ng/mL | Tmax [2, 7]: 1 h | AUC(0-t) [2, 7]: 66100 ng·h/mL | AUC(0-inf) [2, 8]: 281000 ng·h/mL | Cmax [2, 8]: 21400 ng/mL | Tmax [2, 8]: 2 h | AUC(0-t) [2, 8]: 276000 ng·h/mL | AUC(0-inf) [2, 9]: 1040 ng·h/mL | AUC(0-t) [2, 9]: 1010 ng·h/mL | clearance ([2]; C57BL/6, mouse, plasma, 3 mg/kg IV single dose, read-out: CLp (plasma clearance)): 48 mL/min/kg | Vd ([2]; C57BL/6, mouse, plasma, 3 mg/kg IV single dose, read-out: Vdss (steady-state volume of distribution)): 17 L/kg | AUC(0-inf) [2, 10]: 871 ng·h/mL | Cmax [2, 10]: 55.7 ng/mL | Tmax [2, 10]: 2 h | AUC(0-t) [2, 10]: 823 ng·h/mL | AUC(0-inf) [2, 11]: 4790 ng·h/mL | Cmax [2, 11]: 349 ng/mL | Tmax [2, 11]: 2 h | AUC(0-t) [2, 11]: 4520 ng·h/mL | t 1/2 ([2]; plasma, 3 mg/kg IV single dose, 3 mg/kg): 5 h | cell death in KPC tumors (nuclear cleaved caspase 3) [3]: does not induce cell death | cellular levels, % of media concentrations [4]: 40–100%
